Source: ChEMBL document CHEMBL4130587, “Chemical Compounds as Inhibitors of Kinase Activity for the Treatment of Cancer and COPD” (ACS Med Chem Lett, 2017)

Columns and labels:
[1] = molecular target: T1, Phosphatidylinositol 4,5-bisphosphate 3-kinase catalytic subunit delta isoform (Homo sapiens, UniProt O00329); assay: Inhibition of GST-tagged PI3Kdelta […] (unknown origin) using PIP2 as subtrate after 1 hr in presence of biotin-labeled PIP3 by TR-FRET assay
T1 sequence (O00329 whole entry): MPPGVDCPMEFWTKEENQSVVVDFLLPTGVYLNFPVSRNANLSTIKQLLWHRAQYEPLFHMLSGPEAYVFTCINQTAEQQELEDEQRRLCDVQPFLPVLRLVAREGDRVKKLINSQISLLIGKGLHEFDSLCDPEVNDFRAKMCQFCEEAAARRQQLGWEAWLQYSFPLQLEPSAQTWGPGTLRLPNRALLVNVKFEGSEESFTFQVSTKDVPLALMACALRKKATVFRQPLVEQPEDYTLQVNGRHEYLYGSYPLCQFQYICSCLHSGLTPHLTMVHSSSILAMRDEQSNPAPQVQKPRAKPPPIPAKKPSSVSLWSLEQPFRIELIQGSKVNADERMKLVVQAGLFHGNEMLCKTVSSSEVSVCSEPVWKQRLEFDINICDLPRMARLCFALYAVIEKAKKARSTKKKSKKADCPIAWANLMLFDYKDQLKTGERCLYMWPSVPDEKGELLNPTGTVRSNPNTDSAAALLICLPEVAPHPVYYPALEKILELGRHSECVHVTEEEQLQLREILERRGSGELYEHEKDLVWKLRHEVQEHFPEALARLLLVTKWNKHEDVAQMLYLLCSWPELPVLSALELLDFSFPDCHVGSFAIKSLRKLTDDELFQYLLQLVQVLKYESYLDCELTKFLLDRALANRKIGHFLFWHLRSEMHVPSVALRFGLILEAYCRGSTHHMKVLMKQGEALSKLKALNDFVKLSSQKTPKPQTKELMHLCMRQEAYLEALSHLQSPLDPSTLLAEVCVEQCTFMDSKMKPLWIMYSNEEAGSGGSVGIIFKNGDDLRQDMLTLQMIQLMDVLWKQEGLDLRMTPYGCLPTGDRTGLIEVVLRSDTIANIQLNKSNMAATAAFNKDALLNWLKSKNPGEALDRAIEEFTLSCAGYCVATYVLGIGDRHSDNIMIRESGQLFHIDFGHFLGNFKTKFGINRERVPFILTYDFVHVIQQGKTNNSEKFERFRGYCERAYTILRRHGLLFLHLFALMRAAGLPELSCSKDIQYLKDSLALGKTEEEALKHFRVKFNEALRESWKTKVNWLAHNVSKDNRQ

[2] = molecular target: Phosphatidylinositol 4,5-bisphosphate 3-kinase catalytic subunit gamma isoform (Homo sapiens, UniProt P48736); assay: Inhibition of GST-tagged PI3Kgamma […] (unknown origin) using PIP2 as subtrate after 1 hr in presence of biotin-labeled PIP3 by TR-FRET assay
[3] = molecular target: Phosphatidylinositol 4,5-bisphosphate 3-kinase catalytic subunit beta isoform (Homo sapiens, UniProt P42338); assay: Inhibition of GST-tagged PI3Kbeta […] (unknown origin) using PIP2 as subtrate after 1 hr in presence of biotin-labeled PIP3 by TR-FRET assay
[4] = molecular target: Phosphatidylinositol 4,5-bisphosphate 3-kinase catalytic subunit alpha isoform (Homo sapiens, UniProt P42336); assay: Inhibition of GST-tagged PI3Kalpha […] (unknown origin) using PIP2 as subtrate after 1 hr in presence of biotin-labeled PIP3 by TR-FRET assay

Measured: IC50

Sequence of Phosphatidylinositol 4,5-bisphosphate 3-kinase catalytic subunit alpha isoform (P42336 whole entry, canonical isoform): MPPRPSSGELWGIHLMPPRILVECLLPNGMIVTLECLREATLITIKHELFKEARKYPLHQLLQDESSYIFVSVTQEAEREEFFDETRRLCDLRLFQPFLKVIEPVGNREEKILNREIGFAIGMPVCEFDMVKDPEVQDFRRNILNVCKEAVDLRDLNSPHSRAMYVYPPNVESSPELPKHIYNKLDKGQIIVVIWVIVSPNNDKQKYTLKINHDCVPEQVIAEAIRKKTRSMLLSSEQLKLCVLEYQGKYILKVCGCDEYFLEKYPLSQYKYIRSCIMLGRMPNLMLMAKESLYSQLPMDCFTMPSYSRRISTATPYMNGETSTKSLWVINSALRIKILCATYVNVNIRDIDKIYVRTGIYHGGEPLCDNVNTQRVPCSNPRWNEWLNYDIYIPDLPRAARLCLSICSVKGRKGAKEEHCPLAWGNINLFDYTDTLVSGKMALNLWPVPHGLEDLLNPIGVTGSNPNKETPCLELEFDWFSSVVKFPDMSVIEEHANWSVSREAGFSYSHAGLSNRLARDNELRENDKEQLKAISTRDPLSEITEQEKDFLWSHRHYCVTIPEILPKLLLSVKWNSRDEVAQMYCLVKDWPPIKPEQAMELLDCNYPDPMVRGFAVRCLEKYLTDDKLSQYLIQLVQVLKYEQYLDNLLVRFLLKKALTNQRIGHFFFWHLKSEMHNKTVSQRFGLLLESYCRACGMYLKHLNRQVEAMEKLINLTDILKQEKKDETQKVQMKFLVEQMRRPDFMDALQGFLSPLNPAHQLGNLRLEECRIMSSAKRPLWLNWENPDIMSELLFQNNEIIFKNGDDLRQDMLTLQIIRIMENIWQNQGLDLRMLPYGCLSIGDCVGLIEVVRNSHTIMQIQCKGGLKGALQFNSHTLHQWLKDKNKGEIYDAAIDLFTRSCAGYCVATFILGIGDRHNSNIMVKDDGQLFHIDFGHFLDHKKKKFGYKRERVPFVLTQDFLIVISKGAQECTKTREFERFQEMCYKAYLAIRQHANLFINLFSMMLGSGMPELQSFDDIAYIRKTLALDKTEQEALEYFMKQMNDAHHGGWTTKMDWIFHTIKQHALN
Sequence of Phosphatidylinositol 4,5-bisphosphate 3-kinase catalytic subunit beta isoform (P42338 whole entry, canonical isoform): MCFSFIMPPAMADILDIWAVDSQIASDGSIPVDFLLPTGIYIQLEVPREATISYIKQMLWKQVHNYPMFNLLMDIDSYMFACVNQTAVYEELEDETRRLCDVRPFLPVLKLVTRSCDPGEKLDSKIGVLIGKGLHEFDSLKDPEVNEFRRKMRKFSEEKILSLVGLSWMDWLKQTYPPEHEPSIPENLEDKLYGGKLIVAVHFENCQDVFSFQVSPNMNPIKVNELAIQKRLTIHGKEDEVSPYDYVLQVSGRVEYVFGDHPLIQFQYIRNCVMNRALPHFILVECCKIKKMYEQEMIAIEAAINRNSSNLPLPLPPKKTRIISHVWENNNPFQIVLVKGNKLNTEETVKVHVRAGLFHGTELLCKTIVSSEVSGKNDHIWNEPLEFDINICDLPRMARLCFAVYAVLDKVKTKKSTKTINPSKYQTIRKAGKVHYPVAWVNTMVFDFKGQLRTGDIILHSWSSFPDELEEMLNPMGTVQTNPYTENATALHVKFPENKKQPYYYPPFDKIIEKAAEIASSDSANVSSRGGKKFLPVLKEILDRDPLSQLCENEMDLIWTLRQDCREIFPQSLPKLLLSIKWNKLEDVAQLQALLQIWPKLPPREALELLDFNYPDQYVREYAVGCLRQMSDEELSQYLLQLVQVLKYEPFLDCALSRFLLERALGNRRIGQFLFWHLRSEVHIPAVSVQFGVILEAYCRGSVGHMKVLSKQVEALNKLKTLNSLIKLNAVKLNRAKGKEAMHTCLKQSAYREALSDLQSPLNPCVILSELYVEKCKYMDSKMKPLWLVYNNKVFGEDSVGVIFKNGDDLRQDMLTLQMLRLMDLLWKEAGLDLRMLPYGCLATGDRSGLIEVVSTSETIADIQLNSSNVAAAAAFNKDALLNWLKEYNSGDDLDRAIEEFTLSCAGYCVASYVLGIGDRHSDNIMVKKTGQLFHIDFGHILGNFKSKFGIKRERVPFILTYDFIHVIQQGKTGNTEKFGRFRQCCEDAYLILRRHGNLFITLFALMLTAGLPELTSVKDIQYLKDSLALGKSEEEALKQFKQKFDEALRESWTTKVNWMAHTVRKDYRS
Sequence of Phosphatidylinositol 4,5-bisphosphate 3-kinase catalytic subunit gamma isoform (P48736 whole entry, canonical isoform): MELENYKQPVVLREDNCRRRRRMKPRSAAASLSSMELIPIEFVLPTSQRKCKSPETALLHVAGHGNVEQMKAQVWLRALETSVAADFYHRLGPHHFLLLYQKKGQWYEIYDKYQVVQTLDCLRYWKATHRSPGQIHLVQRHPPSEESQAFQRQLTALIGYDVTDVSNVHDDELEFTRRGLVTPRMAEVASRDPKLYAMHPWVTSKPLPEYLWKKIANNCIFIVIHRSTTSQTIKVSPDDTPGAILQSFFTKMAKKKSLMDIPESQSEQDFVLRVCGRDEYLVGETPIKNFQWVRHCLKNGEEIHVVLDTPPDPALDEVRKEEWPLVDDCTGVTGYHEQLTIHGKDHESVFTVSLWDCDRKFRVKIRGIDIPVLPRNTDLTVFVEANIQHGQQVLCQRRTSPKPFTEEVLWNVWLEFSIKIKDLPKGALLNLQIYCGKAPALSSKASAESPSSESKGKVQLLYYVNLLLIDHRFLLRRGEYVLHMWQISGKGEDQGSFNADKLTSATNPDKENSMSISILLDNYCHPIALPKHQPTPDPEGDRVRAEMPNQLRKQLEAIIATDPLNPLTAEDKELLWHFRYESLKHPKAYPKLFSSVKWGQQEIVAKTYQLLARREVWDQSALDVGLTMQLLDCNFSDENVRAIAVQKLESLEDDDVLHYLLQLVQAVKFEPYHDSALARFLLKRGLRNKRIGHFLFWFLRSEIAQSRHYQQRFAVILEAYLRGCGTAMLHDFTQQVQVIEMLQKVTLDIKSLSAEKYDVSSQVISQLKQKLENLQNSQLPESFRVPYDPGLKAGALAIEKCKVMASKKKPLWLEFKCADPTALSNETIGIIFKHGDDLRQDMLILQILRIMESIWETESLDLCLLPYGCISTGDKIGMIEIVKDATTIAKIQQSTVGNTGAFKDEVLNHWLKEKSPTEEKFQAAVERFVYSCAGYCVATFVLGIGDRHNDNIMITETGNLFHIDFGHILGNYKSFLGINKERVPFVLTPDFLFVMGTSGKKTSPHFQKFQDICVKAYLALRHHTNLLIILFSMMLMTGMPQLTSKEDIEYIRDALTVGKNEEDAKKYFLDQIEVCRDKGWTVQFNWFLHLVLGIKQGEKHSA

COc1ncc(N2CCOCC2)cc1S(=O)(=O)Nc1ccnc(-c2ccc(CN3CCOCC3)cc2)c1
≤ 10 µM: [1] | [2] | [3] | [4]

COc1ncc(N2CCOCC2)cc1S(=O)(=O)Nc1ccnc(-c2ccc(CN3CCC(C)C3)cc2F)c1 (stereo not drawn)
≤ 10 µM: [1] | [2] | [3] | [4]

COc1ncc(N2CCOCC2)cc1S(=O)(=O)Nc1ccnc(-c2ccc(CN3CCCC3)cc2F)c1
≤ 10 µM: [1] | [2] | [3] | [4]

COc1ncc(N2CCOCC2)cc1S(=O)(=O)N(c1ccnc(-c2ccc(CN3CCN(C(C)C)CC3)cc2F)c1)C(C)C
≤ 10 µM: [1] | [2] | [3] | [4]

COc1ncc(N2CCOCC2)cc1S(=O)(=O)Nc1ccnc(-c2cc(F)c(CN3CCN(C(C)C)CC3)c(F)c2)c1
≤ 10 µM: [1] | [2] | [3] | [4]

COc1ncc(N2CCOCC2)cc1S(=O)(=O)Nc1ccnc(-c2cc(F)c(CN3CCN(C(C)C)CC3)cc2F)c1
≤ 10 µM: [1] | [2] | [3] | [4]

COc1ncc(N2CCOCC2)cc1S(=O)(=O)Nc1ccnc(-c2ccc(CN3CCCC3C)cc2F)c1 (stereo not drawn)
≤ 10 µM: [1] | [2] | [3] | [4]

COc1ncc(N2CCOCC2)cc1S(=O)(=O)Nc1ccnc(-c2ccc(CN3CCCCC3)cc2F)c1
≤ 10 µM: [1] | [2] | [3] | [4]

CCOc1ncc(N2CCOCC2)cc1S(=O)(=O)Nc1ccnc(-c2ccc(CN3C[C@@H](C)O[C@@H](C)C3)cc2F)c1
≤ 10 µM: [1] | [2] | [3] | [4]

COc1ncc(N2CCOCC2)cc1S(=O)(=O)N(C)c1ccnc(-c2ccc(CN3CCN(C(C)(C)C)CC3)cc2F)c1
≤ 10 µM: [1] | [2] | [3] | [4]

COc1ncc(N2CCOCC2)cc1S(=O)(=O)Nc1ccnc(-c2ccc(CN3C[C@@H](C)O[C@@H](C)C3)cc2)c1
≤ 10 µM: [1] | [2] | [3] | [4]

COc1ncc(N2CCOCC2)cc1S(=O)(=O)N(C)c1ccnc(-c2ccc(CN3CCN(C(C)C)CC3)cc2F)c1
≤ 10 µM: [1] | [2] | [3] | [4]

COc1ncc(N2CCOCC2)cc1S(=O)(=O)Nc1ccnc(-c2ccc(CN3CCN(C(C)C)CC3)cc2)c1
≤ 10 µM: [1] | [2] | [3] | [4]

COCCN1CCN(Cc2ccc(-c3cc(NS(=O)(=O)c4cc(N5CCOCC5)cnc4OC)ccn3)c(F)c2)CC1
≤ 10 µM: [1] | [2] | [3] | [4]

COc1ncc(N2CCOCC2)cc1S(=O)(=O)Nc1ccnc(-c2ccc(CN(C)C)cc2)c1
≤ 10 µM: [1] | [2] | [3] | [4]

COc1ncc(N2CCOCC2)cc1S(=O)(=O)Nc1ccnc(-c2ccc(CN3CCN(C(C)C)CC3)c(F)c2F)c1
≤ 10 µM: [1] | [2] | [3] | [4]

COc1ncc(N2CCOCC2)cc1S(=O)(=O)Nc1ccnc(-c2ccc(CN3CCN(C(C)C)CC3)cc2F)c1
≤ 10 µM: [1] | [2] | [3] | [4]

COc1ncc(N2CCOCC2)cc1S(=O)(=O)Nc1ccnc(-c2ccc(CN3CCN(C4COC4)CC3)cc2F)c1
≤ 10 µM: [1] | [2] | [3] | [4]

COc1ncc(N2CCOCC2)cc1S(=O)(=O)Nc1ccnc(-c2ccc(CN3CCNCC3)cc2F)c1
≤ 10 µM: [1] | [2] | [3] | [4]

CCC(C)N1CCN(Cc2ccc(-c3cc(NS(=O)(=O)c4cc(N5CCOCC5)cnc4OC)ccn3)cc2)CC1 (stereo not drawn)
≤ 10 µM: [1] | [2] | [3] | [4]

COc1ncc(N2CCOCC2)cc1S(=O)(=O)Nc1ccnc(-c2ccc(CN3C[C@@H](C)O[C@@H](C)C3)cc2F)c1
≤ 10 µM: [1] | [2] | [3] | [4]

CCN(c1ccnc(-c2ccc(CN3CCN(C(C)C)CC3)cc2F)c1)S(=O)(=O)c1cc(N2CCOCC2)cnc1OC
≤ 10 µM: [1] | [2] | [3] | [4]

CN(C)c1ncc(N2CCOCC2)cc1S(=O)(=O)Nc1ccnc(-c2ccc(CN3CCN(C(C)(C)C)CC3)cc2F)c1
≤ 10 µM: [1] | [2] | [3] | [4]

CCCN(c1ccnc(-c2ccc(CN3CCN(C(C)C)CC3)cc2F)c1)S(=O)(=O)c1cc(N2CCOCC2)cnc1OC
≤ 10 µM: [1] | [2] | [3] | [4]

COc1ncc(N2CCOCC2)cc1S(=O)(=O)Nc1ccnc(-c2ccc(CN3CCN(C4COC4)CC3)cc2)c1
≤ 10 µM: [1] | [2] | [3] | [4]

COc1ncc(N2CCOCC2)cc1S(=O)(=O)Nc1ccnc(-c2ccc(CN3CCN(C4CCC4)CC3)cc2F)c1
≤ 10 µM: [1] | [2] | [3] | [4]

COc1ncc(N2CCOCC2)cc1S(=O)(=O)Nc1ccnc(-c2ccc(CN3CCC(C(C)(C)O)CC3)cc2F)c1
≤ 10 µM: [1] | [2] | [3] | [4]

COc1ncc(N2CCOCC2)cc1S(=O)(=O)Nc1ccnc(-c2ccc(CN3CCN(C4CCC4)CC3)cc2)c1
≤ 10 µM: [1] | [2] | [3] | [4]

COc1ncc(N2CCOCC2)cc1S(=O)(=O)Nc1ccnc(-c2ccc(CN3CCN(C(C)(C)C)CC3)cc2F)c1
≤ 10 µM: [1] | [2] | [3] | [4]

COc1ncc(N2CCOCC2)cc1S(=O)(=O)Nc1ccnc(-c2cc(Cl)c(CN3CCN(C(C)C)CC3)cc2F)c1
≤ 10 µM: [1] | [2] | [3] | [4]

COc1ncc(N2CCOCC2)cc1S(=O)(=O)Nc1ccnc(-c2ccc(CN3CCCC3)c(F)c2)c1
≤ 10 µM: [1] | [2] | [3] | [4]

COc1ncc(N2CCOCC2)cc1S(=O)(=O)Nc1ccnc(-c2c(F)cc(CN3CCN(C(C)C)CC3)cc2F)c1
≤ 10 µM: [1] | [2] | [3] | [4]

CCOC(=O)CN(c1ccnc(-c2ccc(CN3CCN(C(C)C)CC3)cc2F)c1)S(=O)(=O)c1cc(N2CCOCC2)cnc1OC
≤ 10 µM: [1] | [2] | [3] | [4]

COc1ncc(N2CCOCC2)cc1S(=O)(=O)Nc1ccnc(-c2ccc(CN3CCN(C(C)(C)C)CC3)cc2)c1
≤ 10 µM: [1] | [2] | [3] | [4]

CC(C)N1CCN(Cc2ccc(-c3cc(NS(=O)(=O)c4cc(N5CCOCC5)cnc4N(C)C)ccn3)c(F)c2)CC1
≤ 10 µM: [1] | [2] | [3] | [4]

COc1ncc(N2CCOCC2)cc1S(=O)(=O)N(COC(=O)C(C)(C)C)c1ccnc(-c2ccc(CN3CCN(C(C)C)CC3)cc2F)c1
≤ 10 µM: [1] | [2] | [3] | [4]

COc1ncc(N2CCOCC2)cc1S(=O)(=O)Nc1ccnc(-c2ccc(CN3CCN(C(C)C)CC3)c(F)c2)c1
≤ 10 µM: [1] | [2] | [3] | [4]
